In patent US20040033213A1, “Methods of modulating dendritic cells using adjuvants” (Corixa Corporation, priority 2002, published 2004):

Legend:
Format in all cases: cell-based
[1] = tested on: 6-7 day cultured human dendritic cells; assay: ELISA of cytokines (IL-12 p40, IL-12 p70, TNF-α) in 22 h induction supernatants of cultured human dendritic cells; details: for IL-12 p40 / IL-12 p70 / TNF-α: 22 Hrs
Source text: Recent articles have described how human dendritic cells can be derived in vitro from CD14 positive monocyte precursors in peripheral blood. A “buffy coat” preparation can now be commonly obtained from a unit of normal human peripheral blood from a blood bank on request. The leukocyte fraction was harvested from this buffy coat preparation using standard ficoll centrifugation techniques. Subsequently, the leukocyte fraction was labeled with anti-CD 14 antibody coupled to magnetic microbeads. This preparation was then passed over a magnet (Miltanyi Biotech) and CD14 positive monocytes were collected. These CD14 positive monocyte precursors were then cultured for 5-7 days in vitro (5×10^5 cells/ml) with GM-CSF (20 ng/ml) for the duration of the culture. […] After the 24 hour in vitro stimulation culture, cells were washed twice and stained with a panel of monoclonal antibodies specific for different cell surface activation and co-receptor molecules found on mature, activated DCs.
Supernatants from DCs stimulated with LPS, MPL® immunostimulant-S, RC-527, RC-529, and RC-544 were collected and tested by ELISA analysis for cytokines.

[2] = tested on: cultured human DCs + autologous T cells
[3] = tested on: cultured human dendritic cells (DC); assay: Flow cytometry of cell surface activation markers on human DCs restimulated 72 hours with AGPs (titration)
Method: Dendritic cells are developed in-vitro from human CD14+ monocyte precursors using standard 7 day GM-CSF ([…]) and IL-4 ([…]) culture conditions. The cultured DCs are >90% CD11c^+/HLA-DR^+/lineage^− by flow cytometry analysis. FIGS. 15-18 show the results of flow cytometry analysis of gated CD11c^+/HLA-DR^+/lineage^− human DCs after they were restimulated in-vitro for 72 hours in the presence of selected AGPs at a titration range of 0.1 μg/ml-2 μg/ml. Data is expressed as the percent of gated DCs which are positive for the indicated marker (y-axis) versus the logo10 of the AGP or lipid A concentration. R595 LPS was used in each induction at 10 ng/ml as a positive control—the negative control was unstimulated human dendritic cells cultured for 72 hours in the same medium conditions used for AGP stimulation. Data was analyzed using non-linear regression analysis—all data was modeled using a 3rd order polynomial to determiine the best curve fit.

[4] = tested on: Human d7 Cultured Dendritic Cells; assay: Flow cytometry phenotype analysis of human d7 cultured dendritic cells after 24 h stimulation; details: for HLA-DR MFI: 7 day DCs, 24 h stimulation
[5] = Exp. # 092398, Day 7, LPS 10 ng/ml, others 100 ng/ml
[6] = Exp. # 093098, LPS 10 ng/ml, others 100 ng/ml
[7] = Exp. 091698, 24 h, LPS 10 ng/ml, others 100 ng/ml
[8] = Exp. 092398, 24 h, LPS 10 ng/ml, others 100 ng/ml
[9] = Exp. 093098, 24 h, LPS 10 ng/ml, others 100 ng/ml

With `CCCCCCCCCCCCCC(=O)O[C@H](CCCCCCCCCCC)CC(=O)NCCO[C@@H]1O[C@H](CO)[C@@H](OP(=O)(O)O)[C@H](OC(=O)C[C@@H](CCCCCCCCCCC)OC(=O)CCCCCCCCCCCCC)[C@H]1NC(=O)C[C@@H](CCCCCCCCCCC)OC(=O)CCCCCCCCCCCCC.CCN(CC)CC` [RC-529, 2-[(R)-3-Tetradecanoyloxytetradecanoylamino]ethyl 2-Deoxy-4-O-phosphono-3-O-[(R)-3-tetradecanoyoxytetradecanoyl]-2-[(R)-3-tetradecanoyoxytetradecanoylamino]-β-D-glucopyranoside triethylammonium salt] the “IL-12 p40” value ([1]; Exp. # 091698, LPS 10 ng/ml, others 100 ng/ml) was 38,700 pg/mL/5 × 10^5 Cells, the “IL-12 p70” value ([1]; Exp. # 092398 (second line, Day7), LPS 10 ng/ml, others 100 ng/ml) was 215.3 pg/ml/5 × 10^5 Cells and the “IL-12 p40” value [1, 5] was 127,500 pg/mL/5 × 10^5 Cells. For the same compound, the TNF-α [1, 5] was 7,400 pg/mL/5 × 10^5 Cells, the “IL-12 p70” value ([1]; Exp. # 092398 as printed (first line of section), LPS 10 ng/ml, others 100 ng/ml) was 4.2 pg/ml/5 × 10^5 Cells and the “IL-12 p70” value ([1]; Exp. # 092398 as printed (third line of section), LPS 10 ng/ml, others 100 ng/ml) was 28.2 pg/ml/5 × 10^5 Cells. The “IL-12 p40” value [1, 6] was 60,700 pg/mL/5 × 10^5 Cells, the TNF-α [1, 6] was 372 pg/mL/5 × 10^5 Cells and the “IL-12 (p40) expression (in words)” value ([1]; all three experiments, LPS 10 ng/ml, others 100 ng/ml) was “also stimulated IL-12 (p40) responses”. For the same compound, the “IL-12 (p70) (in words)” value ([1]; the one donor in which LPS and MPL-S gave a significant amount) was “high levels of IL-12 (p70)”, the “TNF-α secretion (in words)” value ([1]; three donors) was “moderately lower than the effect due to RC-527” and the “T cell proliferation / DC activation, CPM 3H-thymidine response (in words)” value [2] was “comparable in their effect and quantitatively higher than the background response”. For the same compound, the “concentration at which the CD80 effect appears to plateau” value ([3]; 72 hours, FIG. 15) was 1 µg/mL, the “concentration at which the CD86 effect plateaus or maximizes” value ([3]; 72 hours, FIG. 18) was 1 µg/mL and the “cell surface expression of CD80 (in words)” value ([3]; 72 hours, titration 0.1-2 μg/ml, FIG. 15) was “lowest overall increase in CD80 expression”. The “DC expression of CD83 (in words)” value ([3]; 72 hours, titration 0.1-2 μg/ml, FIG. 16) was “weak overall increase in CD83 expression”, the “overall induction of DC maturation and co-stimulatory molecule expression (in words)” value ([3]; single analysis, one normal donor) was “very low to marginally positive CD80 and CD83 expression” and the “CD 1a % positive cells” value [4, 7] was 94.3%. The “CD 1a MFI” value [4, 7] was 9.29, the “CD 4 % positive cells” value [4, 7] was 77.0% and the “CD 4 MFI” value [4, 7] was 2.44. For the same compound, the “CD 14 % positive cells” value [4, 7] was 7.5%, the “CD 35 % positive cells” value [4, 7] was 47.6% and the “CD 35 MFI” value [4, 7] was 2.66. For the same compound, the “CD 40 MFI” value [4, 7] was 22.0, the “CD 44 MFI” value [4, 7] was 285 and the “CD 54 MFI” value [4, 7] was 28.2. For the same compound, the “CD 62 L % positive cells” value [4, 7] was 6.4%, the “CD 69 % positive cells” value [4, 7] was 4.4% and the “CD 80 % positive cells” value [4, 7] was 98.9%. The “CD 80 MFI” value [4, 7] was 6.19, the “CD 83 % positive cells” value [4, 7] was 71.0% and the “CD 83 MFI” value [4, 7] was 2.89. The “CD 86 % positive cells” value [4, 7] was 98.7%, the “CD 86 MFI” value [4, 7] was 9.30 and the “CD 95 % positive cells” value [4, 7] was 53.8%. For the same compound, the “CD 95 MFI” value [4, 7] was 1.12, the “HLA-DR MFI” value ([4]; Exp. 091698, LPS 10 ng/ml, others 100 ng/ml) was 88.2 and the “CD 1a % positive cells” value [4, 8] was 86.5%. The “CD 1a MFI” value [4, 8] was 5.47, the “CD 4 % positive cells” value [4, 8] was 71.6% and the “CD 4 MFI” value [4, 8] was 2.65. The “CD 14 % positive cells” value [4, 8] was 4.2%, the “CD 35 % positive cells” value [4, 8] was 58.8% and the “CD 35 MFI” value [4, 8] was 2.92. For the same compound, the “CD 40 MFI” value [4, 8] was 31.5, the “CD 54 MFI” value [4, 8] was 36.6 and the “CD 62 L % positive cells” value [4, 8] was 11.1%. For the same compound, the “CD 69 % positive cells” value [4, 8] was 11.0%, the “CD 80 % positive cells” value [4, 8] was 99.1% and the “CD 80 MFI” value [4, 8] was 8.46. The “CD 83 % positive cells” value [4, 8] was 94.7%, the “CD 83 MFI” value [4, 8] was 3.32 and the “CD 86 % positive cells” value [4, 8] was 99.9%. The “CD 86 MFI” value [4, 8] was 25.3, the “CD 95 % positive cells” value [4, 8] was 90.4% and the “CD 95 MFI” value [4, 8] was 1.43. For the same compound, the “αC5aR + GAR Alexa % positive cells” value [4, 8] was 53.4%, the “CD 44 MFI” value ([4]; Exp. 092398, 24 h, LPS 10 ng/ml, others 100 ng/ml, values printed with a trailing +) was 442+ and the “GAR-Alexa % positive cells” value ([4]; Exp. 092398, 24 h, secondary reagent staining, LPS 10 ng/ml, others 100 ng/ml) was 2.4%. For the same compound, the “HLA-DR MFI” value ([4]; Exp. 092398, LPS 10 ng/ml, others 100 ng/ml) was 158.8, the “CCR 6 % positive cells” value [4, 9] was 5.3% and the “CD 1a % positive cells” value [4, 9] was 80.1%. The “CD 1a MFI” value [4, 9] was 6.51, the “CD 3 % positive cells” value [4, 9] was 27.3% and the “CD 3 MFI” value [4, 9] was 3.87. The “CD 4 % positive cells” value [4, 9] was 77.9%, the “CD 4 MFI” value [4, 9] was 2.97 and the “CD 11c % positive cells” value [4, 9] was 92.4%. For the same compound, the “CD 11c MFI” value [4, 9] was 6.82, the “CD 14 % positive cells” value [4, 9] was 3.9% and the “CD 40 MFI” value [4, 9] was 26.1. The “CD 54 MFI” value [4, 9] was 36.4, the “CD 62 L % positive cells” value [4, 9] was 3.4% and the “CD 80 % positive cells” value [4, 9] was 99.1%. The “CD 80 MFI” value [4, 9] was 10.7, the “CD 83 % positive cells” value [4, 9] was 82.4% and the “CD 83 MFI” value [4, 9] was 3.38. For the same compound, the “CD 86 % positive cells” value [4, 9] was 99.7%, the “CD 86 MFI” value [4, 9] was 22.0 and the “CD 123 % positive cells” value [4, 9] was 44.1%. For the same compound, the “CD 123 MFI” value [4, 9] was 1.90, the “αC5aR + Alexa 488 % positive cells” value [4, 9] was 48.6% and the “αC5aR + Alexa 488 MFI” value [4, 9] was 10.4. For the same compound, the “HLA-DR MFI” value ([4]; Exp. 093098, LPS 10 ng/ml, others 100 ng/ml) was 161.5, the “upregulation of HLA-DR expression (in words)” value ([4]; RC-529 compared with RC-544, all three experiments) was “slightly more effective” and the “stimulating the expression of HLA-DR and co-stimulatory molecules (in words)” value ([4]; RC-529 compared with RC-544, three experiments) was “very comparable effects”.
